Values of other authors as cited in US20200353086A1, “CONTROLLED-RELEASE FORMULATIONS” (CAMURUS AB, priority 2014, published 2020).
*1 amine or outer side, *2 acyl side, *3 side chain or, on linkers, in order; H or OH if unused. Where a SMILES comes first, the peptide text is derived from it. Side-chain parts run from the residue outwards. [ ]: non-standard residue; d: D form. The star is where a group is joined. Ethylenediamine = C(CN[*:2])N[*:1]; Hyp = O=C(O)[C@@H]1C[C@@H](O)CN1; Phg = N[C@H](C(=O)O)c1ccccc1; CO = O=C([*:1])[*:2]; Bn = c1ccc(C*)cc1

Assays:
[1] = tested on: somatostatin receptors (SSTRs)
[2] = human, single subcutaneous dose

C[C@@H](O)[C@@H]1NC(=O)[C@H](CCCCN)NC(=O)[C@@H](Cc2c[nH]c3ccccc23)NC(=O)[C@H](Cc2ccccc2)NC(=O)[C@@H](NC(=O)[C@H](N)Cc2ccccc2)CSSC[C@@H](C(=O)N[C@H](CO)[C@@H](C)O)NC1=O [Octreotide, D-Phe-Cys-Phe-D-Trp-Lys-Thr-Cys-Thr-ol (2-7 disulphide bridge)]
terminal half-life (in vivo): around 1.7 hours
selectivity between somatostatin receptor subtypes [1]: high selectivity for SSTR2 and SSTRS

NCCCC[C@@H]1NC(=O)[C@@H](Cc2c[nH]c3ccccc23)NC(=O)[C@H](c2ccccc2)NC(=O)[C@@H]2C[C@@H](OC(=O)NCCN)CN2C(=O)[C@H](Cc2ccccc2)NC(=O)[C@H](Cc2ccc(OCc3ccccc3)cc2)NC1=O [Pasireotide] (cyclo([Hyp]([CO-Ethylenediamine])[Phg][dW]KY(Bn)F))
initial half-life following the peak [2]: 2 to 3 h
affinity for somatostatin receptor subtypes [1]: high affinity for somatostatin receptor subtypes sstr1,2,3 and sstr5

Ala-Gly-Cys-Lys-Asn-Phe-Phe-Trp-Lys-Thr-Phe-Thr-Ser-Cys [SST-14]
biological half-life (natural SST-14): 1-3 minutes
affinity for somatostatin receptor subtypes [1]: equally high affinity
